# According to ChEMBL document CHEMBL3817770, “Design and synthesis of 5-aminolaevulinic acid/3-hydroxypyridinone conjugates for photodynamic therapy: enhancement of protoporphyrin IX production and photo-toxicity in tumor cells” (Medchemcomm, 2016):
# Active and inactive are the calls of the source. No cut-off for these calls is given here.
# Tests used:
# LNCaP [1] = experiment: Increase in protoporphyrin 9 levels in human LNCAP cells at 100 uM after 24 hrs by fluorescence spectrometer plate reader method relative to ALA; type: functional
# [2] = Increase in protoporphyrin 9 levels in human BPH1 cells at 100 uM after 24 hrs by fluorescence spectrometer plate reader method relative to ALA; type: ADME, cell-based; conditions: bph-1, 24 h
# [3] = Phototoxicity in human BPH1 cells assessed as cell survival at 200 uM incubated for 4 hrs followed by irradiation with blue light for 5 mins by MTT assay; type: cell-based, BPH-1; conditions: bph-1, 4 h, 200 µM
# KB [4] = experiment: Increase in protoporphyrin 9 levels in human KB cells at 100 uM after 24 hrs by fluorescence spectrometer plate reader method relative to ALA; type: functional
# LNCaP [5] = experiment: Dark toxicity in human LNCAP cells at 200 uM after 4 hrs by MTT assay; type: cell-based
# [6] = Dark toxicity in human BPH1 cells at 200 uM after 4 hrs by MTT assay; type: cell-based; conditions: bph-1, 4 h
# LNCaP [7] = experiment: Phototoxicity in human LNCAP cells assessed as cell survival at 200 uM incubated for 4 hrs followed by irradiation with blue light for 5 mins by MTT assay; type: functional
# A549 [8] = experiment: Phototoxicity in human A549 cells assessed as cell survival at 200 uM incubated for 4 hrs followed by irradiation with blue light for 5 mins by MTT assay; type: functional
# LNCaP [9] = experiment: Increase in protoporphyrin 9 levels in human LNCAP cells at 200 uM after 3 to 24 hrs by fluorescence spectrometer plate reader method; type: functional, cell-based
# MCF7 [10] = experiment: Phototoxicity in human MCF7 cells assessed as cell survival at 100 uM incubated for 4 hrs followed by irradiation with blue light for 5 mins by MTT assay; type: functional
# A549 [11] = experiment: Phototoxicity in human A549 cells assessed as cell survival at 100 uM incubated for 4 hrs followed by irradiation with blue light for 5 mins by MTT assay; type: functional
# A549 [12] = experiment: Increase in protoporphyrin 9 levels in human A549 cells at 100 uM after 24 hrs by fluorescence spectrometer plate reader method relative to ALA; type: functional
# MCF7 [13] = experiment: Dark toxicity in human MCF7 cells at 200 uM after 4 hrs by MTT assay; type: cell-based; conditions: mcf7, 4 h
# [14] = Increase in protoporphyrin 9 levels in human BPH1 cells at 200 uM after 3 to 24 hrs by fluorescence spectrometer plate reader method; type: ADME, cell-based; conditions: bph-1, 200 µM
# KB [15] = experiment: Phototoxicity in human KB cells assessed as cell survival at 200 uM incubated for 4 hrs followed by irradiation with blue light for 5 mins by MTT assay; type: functional
# KB [16] = experiment: Increase in protoporphyrin 9 levels in human KB cells at 200 uM after 3 to 24 hrs by fluorescence spectrometer plate reader method; type: functional, cell-based
# A549 [17] = experiment: Increase in protoporphyrin 9 levels in human A549 cells at 200 uM after 3 to 24 hrs by fluorescence spectrometer plate reader method; type: functional, cell-based
# LNCaP [18] = experiment: Phototoxicity in human LNCAP cells assessed as cell survival at 100 uM incubated for 4 hrs followed by irradiation with blue light for 5 mins by MTT assay; type: functional
# A549 [19] = experiment: Dark toxicity in human A549 cells at 200 uM after 4 hrs by MTT assay; type: cell-based; conditions: a549, 4 h
Compound,Activity (LNCaP [1]),Activity [2],Activity [3],Activity (KB [4]),Activity (LNCaP [5]),Activity [6],Activity (LNCaP [7]),Activity (A549 [8]),Activity (LNCaP [9]),Activity (MCF7 [10]),Activity (A549 [11]),Activity (A549 [12]),Activity (MCF7 [13]),Activity [14],Activity (KB [15]),Activity (KB [16]),Activity (A549 [17]),Activity (LNCaP [18]),Activity (A549 [19])
CCn1ccc(=O)c(O)c1C(=O)N[C@@H](CC(C)C)C(=O)NCC(=O)CCC(=O)OC,inactive,Non-toxic,Non-toxic,inactive,Non-toxic,Non-toxic,inactive,inactive,inactive,inactive,inactive,inactive,Non-toxic,Non-toxic,inactive,inactive,inactive,inactive,Non-toxic
CCCCn1ccc(=O)c(O)c1C(=O)N[C@@H](Cc1ccccc1)C(=O)NCC(=O)CCC(=O)OC,inactive,Non-toxic,Non-toxic,inactive,Non-toxic,Non-toxic,inactive,inactive,inactive,inactive,inactive,inactive,Non-toxic,Non-toxic,inactive,inactive,inactive,inactive,Non-toxic
CCn1ccc(=O)c(O)c1C(=O)N[C@@H](Cc1ccccc1)C(=O)NCC(=O)CCC(=O)OC,inactive,Non-toxic,Non-toxic,inactive,Non-toxic,Non-toxic,inactive,inactive,inactive,inactive,inactive,inactive,Non-toxic,Non-toxic,inactive,inactive,inactive,inactive,Non-toxic
CCCCCCn1ccc(=O)c(O)c1C(=O)N[C@@H](Cc1ccccc1)C(=O)NCC(=O)CCC(=O)OC,inactive,Non-toxic,Non-toxic,inactive,Non-toxic,Non-toxic,inactive,inactive,inactive,inactive,inactive,inactive,Non-toxic,Non-toxic,inactive,inactive,inactive,inactive,Non-toxic
COCCn1ccc(=O)c(O)c1C(=O)N[C@@H](CC(C)C)C(=O)NCC(=O)CCC(=O)OC,inactive,Non-toxic,Non-toxic,inactive,Non-toxic,Non-toxic,inactive,inactive,inactive,inactive,inactive,inactive,Non-toxic,Non-toxic,inactive,inactive,inactive,inactive,Non-toxic
CCCCCCn1ccc(=O)c(O)c1C(=O)N[C@@H](CC(C)C)C(=O)NCC(=O)CCC(=O)OC,inactive,Non-toxic,Non-toxic,inactive,Non-toxic,Non-toxic,inactive,inactive,inactive,inactive,inactive,inactive,Non-toxic,Non-toxic,inactive,inactive,inactive,inactive,Non-toxic
CCCCn1ccc(=O)c(O)c1C(=O)N[C@@H](CC(C)C)C(=O)NCC(=O)CCC(=O)OC,inactive,Non-toxic,Non-toxic,inactive,Non-toxic,Non-toxic,inactive,inactive,inactive,inactive,inactive,inactive,Non-toxic,Non-toxic,inactive,inactive,inactive,inactive,Non-toxic
COC(=O)CCC(=O)CNC(=O)[C@H](CC(C)C)NC(=O)c1c(O)c(=O)ccn1C,inactive,Non-toxic,Non-toxic,inactive,Non-toxic,Non-toxic,inactive,inactive,inactive,inactive,inactive,inactive,Non-toxic,Non-toxic,inactive,inactive,inactive,inactive,Non-toxic
COCCn1ccc(=O)c(O)c1C(=O)N[C@@H](Cc1ccccc1)C(=O)NCC(=O)CCC(=O)OC,inactive,Non-toxic,Non-toxic,inactive,Non-toxic,Non-toxic,inactive,inactive,inactive,inactive,inactive,inactive,Non-toxic,Non-toxic,inactive,inactive,inactive,inactive,Non-toxic
